The test system of data set [1] is mice infected with E. coli ATCC35218. The format is in vivo. To be noted: i.v. 20 mg kg^−1 Corramycin in E. coli mouse infection model. On the procedure: As bacterial resistance development in minimal media is thought to be more mimetic to an actual infection in vivo, we decided to test the in vivo efficacy of Corramycin in infected mice, despite the poor FoR experiment results in the rich medium. The mice were first infected intraperitoneally with E. coli ATCC35218 and subsequently treated with different doses of Corramycin ranging from a total of 10 to 30 mg per kg body weight divided into two doses, 1 hour and 3 hours after infection.
Figure 4 In vivo antibacterial activity of Corramycin in infected mice. A) Colony forming unit (CFU) load of E. coli ATCC35218 in blood 4 hours post infection with 2.10^7 CFU. 5 mice per dose were used. […]; Tienam: Imipenem/Cilastatin treatment (positive control, dark grey bar); Corramycin treatment with different doses (light blue, blue and dark blue bars). B) Survival rate [in %] of 10 mice per dose 3, 6, 24, 48, 72 and 96 hours post infection.
13.2 Complementation of SbmA and YejEF in the E. coli deletion mutant […]
14.1 Infection of the test animals and treatment with Corramycin in vivo For the in vivo infection and antibiotic treatment experiments a total of 75 male Swiss albino mice, divided into five groups with 15 animals, were used. Before infecting the test animals, the weight of each animal was determined (Suppl. Raw Data 1). […]

Data set [2] is classed as in vivo. Particulars: single i.v. bolus 30 mg kg-1, male Swiss mice, LC/MS-MS, three animals per sampling time. On the procedure:
However, despite this rapid elimination, the antibacterial effect was strong enough in the animals to achieve survival after a single day of treatment.
Figure S 71. A) Blood bacteremia experiment. E. coli ATCC35218 CFU load after treatment of infected mice with 10 mg kg-1, 20 mg kg-1 or 30 mg kg-1 Corramycin. B) Survival of the E. coli ATCC35218 infected mice in %, after one day of treatment with either 0.9 % NaCl (negative control), Tienam (15 mg kg-1 Imipenem; positive control) or Corramycin in three different doses (10 mg kg-1, 20 mg kg-1 or 30 mg kg-1).
14.2 Corramycin elimination experiment
Native Corramycin systemic exposure was determined following a single intravenous (30 mg kg-1 expressed as active compound) bolus administration to male Swiss mice. […]
Lung, brain, kidney, heart and liver were collected at each sampling time (5 min, 0.5, 1, 2, 4, 6, 8 and 24 h post administration) pooled per sampling time, weighed and frozen at -20 °C until analysis. Native Corramycin was quantified in the plasma and tissues using an exploratory LC/MS-MS assay method in Early Bioanalysis Group of Toulouse (Montpellier DSAR Operational Center), France. […] The pharmacokinetic parameters were calculated from the arithmetic mean of the plasma concentrations or the tissue concentrations (lung, brain, kidney, heart and liver) using the program WinNonLin 5.2, non-compartmental models 200 and 201. […]

*1 amine or outer side, *2 acyl side, *3 side chain or, on linkers, in order; H or OH if unused. Where a SMILES comes first, the peptide text is derived from it. [ ]: non-standard residue; d: D form. The star is where a group is joined. Ava(2S,3R-(OH)2,4S-OMe) = CO[C@@H](CN[*:1])[C@H](O)[C@H](O)C(=O)[*:2]; dHis(βS-OH,π-Me) = Cn1cncc1[C@@H](O)[C@@H](N)C(=O)O; Butanoyl(2R-OH,3S-OH) = C[C@H](O)[C@@H](O)C(=O)*; Val(3-OH) = CC(C)(O)[C@H](N)C(=O)O; NMeF = CN[C@@H](Cc1ccccc1)C(=O)O

`CO[C@@H](CNC(=O)[C@H](NC(=O)[C@H](O)[C@H](C)O)[C@H](O)c1cncn1C)[C@H](O)[C@H](O)C(=O)N(C)[C@@H](Cc1ccccc1)C(=O)NCC(=O)N[C@H](C(=O)N[C@@H](CO)C(=O)N[C@H](C(=O)N[C@@H](CC(C)C)C(=O)N[C@@H](CO)C(=O)O)C(C)(C)O)C(C)(C)O` [Corramycin] ({Butanoyl(2R-OH,3S-OH)}-[dHis(βS-OH,π-Me)][Ava(2S,3R-(OH)2,4S-OMe)][NMeF]G[Val(3-OH)]S[Val(3-OH)]LS-OH): in data set [1], the “Toxic side effects in mice” value is “without toxic side effects”. Besides, in data set [2], the “Time of plasma concentration above the MIC after i.v. administration” value is “less than 30 minutes”. The Cytotoxicity result in the data set on mammalian cell lines is listed as “no cytotoxicity”.

(Values after publication PMC10099666, “Structure Elucidation, Total Synthesis, Antibacterial In Vivo Efficacy and Biosynthesis Proposal of Myxobacterial Corramycin” (Angewandte Chemie (International Ed. in English), 2022).)
